These results are taken from US20230102836A1, “Amoebicidal Compositions for Contact Lens Solutions” (University of the West of Scotland, priority 2019, published 2023).

The test system of data set [1] is A. castellanii trophozoites. Description: Cytotoxicity assay on trophozoites (resazurin / alamarBlue). It counts as cell-based, Acanthamoeba castellanii ATCC 50370. The conditions noted are these: for IC50: Acanthamoeba castellanii. How it is done: Acanthamoeba castellanii ATCC 50370 trophozoites and cysts were cultured in Peptone Glucose (PG) medium and encystment medium (Chagla A H, Griffiths A J (1974) Microbiology: 85(1): 139-145) respectively at 25° C. Cysts were prepared by incubating trophozoites for 8 days in encystment medium and integrity validated with calcofluor (0.25 μg/ml) assay (Gatti S et al (2010) J. Med. Microbiol.; 59: 1324-1330) or sodium dodecyl sulfate (SDS, 0.5% w/v) disintegration assay (Dudley R et al (2005) Acta Trop.; 9: 100-8) and microscopic observation.
The compounds used in this study all contained alkyl-carbon chains: three APCs [dodecyl-PC (APC12), tetradecyl-PC. (APC14) and hexadecyl-PC (APC16)] (Anatrace) and four QACs [docdecyl-TMAB (QAC12), tetradecyl-TMAB (QAC14), hexadecyl-TMAB (QAC16) and octadecyl-TMAB (QAC18)](Sigma). All were prepared to a stock concentration of 1 mg/ml and diluted as required by the experimental protocol in the cytotoxicity assays. […]
[…] Resazurin (7-Hydroxy-31-phenoxazin-3-one 10-oxide; 5 mg/ml; McBride J et al (2005) J. Clin. Microbiol.; 43: 629-634) and trypan blue (0.4 μg/ml; Mafra C S P et al (2013) Investig. Ophthalmol. Vis. Si.; 54: 6363-6372) were then added to trophozoites and cysts respectively after being exposed to the compounds and the cell viability estimated microscopically and from changes in absorbance (at 595 nm and 570 nm) respectively.
Efficacy was expressed as a percentage of untreated controls for each drug concentration used and the data used to calculate the IC50. Cell density was estimated using the modified Neubaur hemocytometer and expressed as cells/ml.

The conditions of data set [2]: APCs; cited from earlier work.
The subject of data set [3] is A. castellanii trophozoites. Description: Drug wash-out / alamarBlue-reversion assay, trophozoites. The data set is classed as cell-based, Acanthamoeba castellanii ATCC 50370. The conditions noted are these: 12.5 μg/ml to 100 μg/ml after 96 h.
The subject of data set [4] is A. castellanii trophozoites. Description: Morphometric analysis of trophozoites. It counts as cell-based, Acanthamoeba castellanii ATCC 50370. How it is done:
Acanthamoeba trophozoites ([…]) incubated without (FIG. 2A), with QAC18 at 37.5 μg/ml for 1 h at 25° C. (FIG. 2B), and 0.5% SDS for 30 min (FIG. 2C). QAC18 reduced trophozoites sizes from 29.02±0.23 (FIG. 2A) to 7.87 f 0.93 (FIG. 2B) which disintegrated after 30 min treatment with SDS (FIG. 2C).
A. castellanii trophozoites incubated with and without QAC for a duration determined by experimental protocol were examined microscopically and their sizes measured using the Open Laboratory (Improvision) calibration graticule. The mean body sizes were determined.

The test system of data set [5] is A. castellanii trophozoites. The experiment in a line: Combined assay with fixed QAC12 (alamarBlue). It counts as cell-based, Acanthamoeba castellanii ATCC 50370. The conditions noted are these: for IC50: Acanthamoeba castellanii, 96 h, 96 h at 25° C. How it is done: Acanthamoeba trophozoites (10^5 cells/ml. n=5/treatment) treated with 100 μg/ml doubly diluted to 0.06 μg/ml of QAC18 (a,b) or APC16 (c,d) for 96 h at 25° C. […] Similarly. APC16 alone at the same concentration (closed circle, FIG. 6C, FIG. 6D) in combination with QAC12 at 18.75 μg/ml (open squares, d) QAC12 at […] (open squares, FIG. 6C). Data are mean absorbance at 595 nm t SD; n=4 independent experiments performed in triplicates. IC50s were not statistically significant between QAC12 at both concentrations and QAC16 (p>0.05, FIG. 6A, FIG. 6B) but significant with APC16 (p<0.05, FIG. 6C, FIG. 6D).
For the combined assay, similar concentrations of QAC18 and APC16 were prepared and 18.75 μg/ml and 37.5 μg/ml of QAC12 added (to a final volume of 100 μl) were added to 10^5 cells/mi in a 96-well plate and later incubated at 25° C. for a duration determined by the experimental protocol. Resazurin (7-Hydroxy-31-phenoxazin-3-one 10-oxide; 5 mg/ml; McBride J et al (2005) J. Clin. Microbiol.; 43: 629-634) and trypan blue (0.4 μg/ml; Mafra C S P et al (2013) Investig. Ophthalmol. Vis. Si.; 54: 6363-6372) were then added to trophozoites and cysts respectively after being exposed to the compounds and the cell viability estimated microscopically and from changes in absorbance (at 595 nm and 570 nm) respectively.
(Resazurin is reduced to fluorescent resorufin, in cell work by metabolically active cells.)

Setting [6] is: Table 4, read-out: IC50 against Acanthamoeba spp.
The mark [7] stands for this setting: Table 5, 72 h and 96 h at 26° C., alamar blue, read-out: IC50 Acanthamoeba trophozoites.

In brackets after ≈: the same amount, converted by molar mass. Several values for one entry are separate records, joined by “and”; a condition that tells them apart may be missing. Equal entries are not always repeated. Marks after values point to notes of the source that are not given here. Where only a bound is given, the exact number is not on record here.

Turning to “10-Undecylenyl-1-phosphocholine [APC11UPC]”, the “Increase in activity relative to saturated counterpart APC12” value in data set [1] worked out at 3 fold. For the same compound, the “IC50 against Acanthamoeba spp” value in data set [1] (Table 4) was found to be 3.1 ± 0.4 µg/mL.
On to `CCCCCCCCCCCCCCOP(=O)([O-])OCC[N+](C)(C)C` [APC14, Tetradecylphosphocholine], for which, in data set [2], the CMC value was 120.00* μM. Moreover, the IC50 is 8.9 ± 0.2 µg/mL (≈ 23.5 µM) in data set [1] (setting [6]); 8.9 µg/mL and 23.4 µM in data set [1] (setting [7]).
As to `CC(C)CCC(CCC(C)C)OP(=O)([O-])OCC[N+](C)(C)C` [APC11PC, 2,8-Dimethyl-5-Nonylphosphocholine], the half-inhibitory concentration (IC50) in data set [1] (setting [6]) was greater than 37.5 µg/mL.
The same measure, in the same setting: in the case of `CCCCCCCCCCOP(=O)([O-])OCC[N+](C)(C)C` [APC10, Decylphosphocholine] it was 58 ± 0.9 µg/mL (≈ 179 µM).
Regarding `CCCCCCCCOP(=O)([O-])OCC[N+](C)(C)C` [APC8, Octylphosphocholine], the half-maximal inhibitory concentration (IC50) in data set [1] (setting [6]) worked out at 46.4 ± 2.3 µg/mL (≈ 157 µM).
With `CCCCCCCCCCCC[N+](C)(C)CCCCCCCCCCCC.[Br-]` [DAB, Didodecyldimethyl ammonium bromide], the IC50 in data set [1] (setting [6]) worked out at 27 ± 2.2 µg/mL.
On to `CCCCCCCCCCCCCCCCCCOP(=O)([O-])OCC[N+](C)(C)C` [APC18, Octadecylphosphocholine], for which the IC50 in data set [1] (setting [6]) was 3 ± 0.3 µg/mL (≈ 6.89 µM).
Turning to `CCCCCCCCCCCCCCCCOP(=O)([O-])OCC[N+](C)(C)C` [APC16, Hexadecylphosphocholine], in data set [3], the “Effect after APC16 wash-out and incubation in PG medium” value is on record as “amoebostatic”. Moreover, the “Reduction in trophozoite size relative to untreated” value in data set [4] is given as 4 fold. The CMC value in data set [2] was 13.00* μM. In data set [5] (APC16 at 3.12, 4.68, 6.25 and 9.36 μg/ml combined with QAC12, not alone), the “Effect after drug wash-out (inability to oxidise resazurin)” value is “cytotoxic”. The IC50 in data set [5] (QAC12 at 18.75 μg/ml, read-out: Estimated IC50 of APC16 with QAC12) was 3.4 µg/mL; in data set [5] (QAC12 at 37.5 μg/ml, read-out: Estimated IC50 of APC16 with QAC12), 2.5 µg/mL; in data set [5] (without QAC12, read-out: IC50 of APC16 only control) it was 7.6 µg/mL; in data set [1] (setting [6]), 7.9 ± 0.3 µg/mL (≈ 19.4 µM); in data set [1] (setting [7]), 7.9 µg/mL and 19.4 µM.
`CCCCCCCCCCCCOP(=O)([O-])OCC[N+](C)(C)C` [APC12, Dodecylphosphocholine]: the CMC value in data set [2] is on record as 1000.00* μM. Also, the IC50 in data set [1] (setting [7]) is 22.9 µg/mL and 65.2 µM.

For orientation: IC50 means the concentration that inhibits the measured activity by half.
